According to patent publication US9320736B2, “Zinc chelating agents for depleting XIAP and sensitizing tumor cells to apoptosis” (Institute for Cancer Research, priority 2012, dated 2016):
“Also recorded” adds a separate entry of the source.

Assays:
PC-3 cells = assay: TRAIL-mediated apoptosis in PC-3 cells (DNA fragmentation assay); type: cell-based, human; settings: chelator combined with TRAIL, FIG. 4
XIAP [1] = assay: XIAP depletion in PC-3 cells by Western blot / immunoblotting; type: cell-based, human; settings: for XIAP depletion (Western blot): chelator 50 μM, 4 hours, FIG. 3/4; for depletion of XIAP compared with TPEN: prostate cancer cells
Protocol: PC-3 cells were cultured in medium alone, or in the presence of PPIX (50 μM) for 4 hours, or 5-Ala (250 μM) for 24 hours. Expression of XIAP and GAPDH (control) was detected by immunoblotting with an antibody to XIAP or GADPH, respectively.
Cell Lines and Culture Conditions. A PC-3 castration-resistant prostate cancer cell line was obtained from the American Type and Culture Collection (Rockville, Md.). PC-3 cells were maintained in complete cell culture medium (RPMI 1640 medium (Bio-Whittaker, Walkersville, Md.) supplemented with 10% FCS (Hyclone, Logan, Utah), gentamicin (50 mg/L), sodium pyruvate (1 mM) and non-essential amino acids (0.1 mM)).
Analysis of XIAP Depletion in PC-3 Cell Line Following Administration of Heterocyclic Zn Chelators. PC-3 cells were cultured under three distinct conditions; medium alone, with administration of TPEN (8 μM) as a positive control for 2 hours, and with administration of an individual Zn chelators (MR) (50 μM) for 4 hours.
Western blot analysis was performed to assess for level of XIAP depletion. Whole cell lysates were prepared as described previously (Kolenko V et al. (1999) J. Immunol. 163: 590-8). Protein concentrations were measured with BCA protein assay reagents (Pierce, Rockford, Ill.). Equivalent amounts of proteins (20 μg) were mixed with an equal volume of 2× Laemmli sample buffer, boiled and resolved by electrophoresis in 10% sodium dodecyl sulfate-polyacrylamide gels (SDS-PAGE). The proteins were transferred from the gel to a nitrocellulose membrane using an electroblotting apparatus (Bio-Rad) (15 V, 3 mA/cm2 for 24 minutes).
Membranes were then incubated in a blocking solution containing 5% nonfat dry milk overnight to inhibit nonspecific binding. The membranes were then incubated with specific antibody (1-3 μg/ml) for 2 hours. After washing in TRIS/0.1% Tween 20 for 30 minutes, membranes were incubated for another 30 minutes with horseradish peroxidase-conjugated secondary antibody. The membranes were then washed and developed with enhanced chemiluminescence (ECL Western Blotting Kit, Amersham, Arlington Heights, Ill.).

[2] = Intravenous tolerability in C.B17/Icr-scid mice; type: in vivo; settings: two 6 week-old male C.B17/Icr-scid mice, iv 100 μl at 15 mM
Protocol: Animal Studies. Two 6 week-old male C.B17/Icr-scid mice were injected intravenously with 100 μl of MR13 chelator at final concentration of 15 mM.

PC-3 tumors = assay: PC-3 tumor growth in ectopic xenograft mouse model of prostate cancer; type: in vivo; settings: 5-Ala ip 10 mg/mouse daily combined with HGS-ETR1 iv 0.25 mg/mouse once a week, PC-3 tumors in male C.B17/Icr-scid mice, FIG. 2
Protocol: PC-3 tumors were established in male C.B17/Icr-scid mice. When tumor volumes reach approximately 200 mm^3, the animals were grouped (n=5 for each group) and treated with saline (control), an ip injection of 5-Ala (10 mg/mouse, daily) and/or an iv injection of HGS-ETR1 (0.25 mg/mouse once a week).

XIAP [3] = settings: human prostate cancer cells; Makhov et al. 2008; cited from earlier work
[4] = system: cIAP1, cIAP2 and surviving; assay: Expression of other zinc-containing IAP family members in TPEN-treated cells; type: cell-based
Excerpt: (§1) The inhibition of XIAP expression is selective, as TPEN has no effect on the expression levels of other zinc-containing members of IAP family, i.e., cIAP1, cIAP2 and surviving. As well, the XIAP mRNA level is not reduced in TPEN-treated cells. Therefore, zinc chelation by TPEN induces depletion of XIAP specifically at the protein level. […] Importantly, the sensitization to therapeutic agents is specific to malignant but not to benign cells. This cytotoxic specificity for malignant cells is consistent with experiments showing that XIAP is preferentially degraded in malignant but not in benign cells upon zinc chelation and stems from blunted regulation of zinc uptake transporters upon carcinogenesis.

XIAP mRNA = XIAP mRNA level in TPEN-treated cells; type: cell-based
Excerpt: as §1

malignant cells = assay: Potentiation of therapeutic agents by TPEN in malignant cells; type: cell-based; settings: specific to malignant, not benign cells
Excerpt: as §1

XIAP [5] = assay: XIAP protein levels in xenograft animal model of human prostate cancer; type: in vivo
Excerpt: as §1

Structure (SMILES)	promotion of TRAIL-mediated cell death / apoptotic response (PC-3 cells)	XIAP depletion (Western blot) (XIAP [1]; PC-3 cells)	depletion of XIAP compared with TPEN (XIAP [1])	further results
N#Cc1ccc(S(=O)(=O)Nc2cccc3cccnc23)cc1 [MR44]	promoted TRAIL-mediated cell death	completely depleted XIAP	at least as effectively as TPEN	–
O=S(=O)(Nc1cccc2cccnc12)c1ccc(F)c(Cl)c1 [MR13]	promoted TRAIL-mediated cell death	completely depleted XIAP	at least as effectively as TPEN	tolerability of intravenous administration [2]: well tolerated
NCC(=O)CCC(=O)O [5-Ala, 5-aminolevulinic acid, reference compound]	–	–	–	tumor growth / antitumor effect (PC-3 tumors): augments HGS-ETR1 the antitumor effect; tumor growth / antitumor effect (PC-3 tumors; listed as 5-ALA): completely arrested tumor growth; XIAP expression (immunoblot) (XIAP [1]; PC-3 cells, 5-Ala 250 μM, 24 hours, FIG. 1): reduces XIAP levels; also recorded: significantly reduced XIAP expression
O=S(=O)(Nc1ccccc1-c1nc2ccccc2[nH]1)c1c(F)cccc1F [MR96]	did not succeeded in producing an apoptotic response	failed to induce XIAP depletion	–	–
c1ccc(CN(CCN(Cc2ccccn2)Cc2ccccn2)Cc2ccccn2)nc1 [TPEN, N,N,N′,N′-tetrakis(2-pyridylmethyl)-ethylenediamine]	–	–	–	depletion of XIAP (XIAP [3]): selective and rapid depletion; also recorded: rapidly depletes XIAP; effect on expression levels of other zinc-containing IAP family members [4]: no effect; XIAP mRNA level (XIAP mRNA): not reduced; potentiation of the action of HGS-ETR1 (mapatumumab) and docetaxel (malignant cells): markedly potentiated; XIAP protein levels in vivo (XIAP [5]): rapid decrease of XIAP protein levels
O=S(=O)(Nc1ccccc1-c1nc2ccccc2[nH]1)c1ccc(F)cc1 [MR66]	did not succeeded in producing an apoptotic response	failed to induce XIAP depletion	–	–
